Where a SMILES comes first, the peptide text is derived from it. [ ]: non-standard residue; d: D form. Tyr(3-I) = N[C@@H](Cc1ccc(O)c(I)c1)C(=O)O; Sta = CC(C)C[C@H](N)[C@@H](O)CC(=O)O; AEEA = NCCOCCOCC(=O)O
Assays:
[1] = Experimental: Lipophilicity was determined as the logarithm of partition coefficient, logP, of the radiolabelled compound between n-octanol and water. To determine the lipophilicity of both radioconjugates, 500 µL of n-octanol was added to a tube containing the same volume of Milli-Q water. 1 pmol (10 kBq) of radioconjugate was added. The mixture was vigorously vortexed for 1–2 min and then centrifuged. Aliquots of 100 μL were taken from each phase and their radioactivity was measured by an automated gamma-counter. The partition coefficient was calculated as the average log of a ratio of the radioactivity in organic and aqueous fractions. Each measurement was repeated in triplicate.
[2] = 0.5 h; 300 µg phosphoramidon co-injected; non-tumour bearing NMRI mice
Experimental: Two groups of 4 mice were used for this experiment. Biodistribution of [^125I]I-Tyr-PEG2-RM26 was evaluated in female NMRI mice (weight: 29.6 ± 1.7 g). Non-tumour bearing mice as a control group were injected with 40 pmol of [^125I]I-Tyr-PEG2-RM26 (30 kBq, 100 μL in PBS) into the tail vein. Another group of mice was injected with same activity by co-injection of PA (15 µL of 20 mg/mL stock solution, 300 µg). After 0.5 h, mice were euthanized by dislocation of their neck, and blood samples were collected. Salivary glands, thyroid, lung, liver, spleen, pancreas, stomach, small intestine, kidneys, […], muscle, and bone were collected and weighed. The organ radioactivity was measured in a gamma-counter and uptake values of organs were calculated as percentage injected dose per gram tissue (% ID/g).

## CC(C)C[C@H](NC(=O)C[C@H](O)[C@H](CC(C)C)NC(=O)[C@H](Cc1c[nH]cn1)NC(=O)CNC(=O)[C@@H](NC(=O)[C@H](C)NC(=O)[C@H](Cc1c[nH]c2ccccc12)NC(=O)[C@H](CCC(N)=O)NC(=O)[C@@H](Cc1ccccc1)NC(=O)COCCOCCNC(=O)[C@@H](N)Cc1ccc(O)c(I)c1)C(C)C)C(N)=O [[^125I]I-Tyr-PEG2-RM26] (H-[Tyr(3-I)][AEEA][dF]QWAVGH[Sta]L-NH2)
[1]
  logP: 1 ± 0.1
[2]
  Influence of PA co-injection on blood clearance rate or uptake in normal non-targeted organs and tissues: did not show any significant influence
  Uptake in GRPR-positive organs (pancreas, small intestines, stomach) after co-injection of PA: No significant increase
